Data as given in patent publication US20210267939A1, “COMPOSITIONS AND METHODS FOR TREATING NAFLD/NASH AND RELATED DISEASE PHENOTYPES” (priority 2018, published 2021).

Legend:
Zucker fatty rats = experiment: Indirect calorimetry in BT2-treated Zucker fatty rats; assay type: in vivo; conditions: ZFR, BT2 20 mg/kg i.p., day 6, hours following administration
Experimental: Individually housed, male 12 week-old Zucker fatty rats (ZFR, Charles River Laboratories) maintained on a custom control low fat (LF) diet (A11072001, Research Diets) were used for the BDK inhibition and PPM1K overexpression studies. For the BDK inhibition study, ZFR were administered the small molecule BDK inhibitor 3,6-dichlorobenzo[b]thiophene-2-carboxylic acid (BT2, Sigma) daily at a dose of 20 mg/kg dissolved in 200 ul of sterile dimethylsulfoxide by i.p. injection for 7 days. The control group was administered an equal volume of vehicle each day. On day 6, following an overnight fast, ZFR were subjected to a 1 g/kg i.p. glucose tolerance test (GTT) precisely 1 hr after administration of BT2 (20 mg/kg i.p.) or vehicle. The glucose tolerance test was performed as described (White, et al., 2016). Following the GTT, rats were returned to their normal cages and provided free access to food and water. Indirect calorimetry was performed in a second cohort of BT2 treated rats on day 6 of BT2 administration. Here ad-libitum fed rats were injected with BT2 (20 mg/kg i.p.) or vehicle immediately prior to being placed in an eight-chamber Oxymax system (Columbus Instruments) for seven hours. During their time in the metabolic cages all rats had free access to food and water. […]

[1] = system: site-specific phosphorylation changes in liver samples; experiment: Phospho-proteomics of liver from treated Zucker fatty rats; assay type: in vivo; conditions: BT2 vs vehicle ZFR
Experimental: Phosphoproteomics: Large-scale measurements of phosphorylation changes in response to BT2 and PPM1K were performed. Briefly, protein from livers of ZFR treated with BT2 or DMSO, or with Ad-CMV-PPM1K or Ad-CMV-GFP, were solubilized, digested with LysC and trypsin, labeled with TMT-6plex reagents, and mixed in batches of six to enable two direct comparisons: 1) BT2 vs. DMSO (n=3), 2) PPM1K vs. GFP (n=3). Phosphopeptides were enriched from the majority of each mixture using immobilized metal affinity chromatography (IMAC), and a small portion of the input material was retained for assessment of relative protein abundance. Both phosphopeptide and input fractions were subjected to nanoLC-MS/MS using a nano-Acquity UPLC system (Waters) coupled to a Q Exactive Plus Hybrid Quadrupole-Orbitrap mass spectrometer (Thermo Fischer Scientific). Raw LC-MS/MS data were processed in Proteome Discoverer v2.1 (PD2.1, Thermo Fisher Scientific) and subsequent statistical analysis was performed in Microsoft EXCEL. […] (PD2.2, Thermo Fisher Scientific). Phosphosite motif analysis and logo generation was performed in PhosphoSitePlus® by submitting pre-aligned 15 amino acid sequences for all modulated phosphopeptides from each study into the motif and logo analysis tools (Hornbeck et al., 2015).
Tissue lysis and protein digestion for proteomics: Approximately 50 mg of pulverized liver tissue power from each rat (3 BT2- and 3 DMSO-treated animals; 3 PPM1K- and 3 GFP-overexpressing animals) was re-suspended in 400 μL of ice-cold 8M Urea Lysis Buffer (8 M urea in 50 mM Tris, pH 8.0, 40 mM NaCl, 2 mM MgCl2, 1 mM Na3VO4, 10 mM Na4P2O7, 50 mM NaF, supplemented with protease inhibitor (1× cOmplete mini EDTA-free) and phosphatase inhibitor (1× PhosStop) tablets). […] Protein concentration was determined by BCA, and equal amounts of protein (500 μg, adjusted to 2.5 mg/mL with Urea Lysis Buffer) from each sample was reduced with 5 mM DTT at 37° C. for 30 min, cooled to RT, alkylated with 15 mM iodoacetamide for 30 min in the dark and unreacted iodoacetamide quenched by the addition of DTT up to 15 mM. […]

## O=C(O)c1sc2cc(Cl)ccc2c1Cl [BT2, 3,6-dichlorobenzo[b]thiophene-2-carboxylic acid]
Zucker fatty rats
  respiratory exchange ratio (RER): lowered
[1]
  phosphorylation of serine 25, serine 29 and serine79 of acetyl-coA carboxylase 1 (ACC1), phospho-proteomics: less phosphorylated
  phosphosite serine 454 of ATP-citrate lyase (ACL), phospho-proteomics: significantly downregulated
[1]; p=0.054
  Log2 fold change in phosphorylation of serine 293 (serine 333) of BCKDH e1a, phospho-proteomics: −0.68
